Data from ChEMBL document CHEMBL1153314, “[2-(4-Phenyl-4-piperidinyl)ethyl]amine based CCR5 antagonists: derivatizations at the N-terminal of the piperidine ring” (Bioorg Med Chem Lett, 2009).

Key:
in vivo [1] = details: rat, 1 mg/kg
in vivo [2] = details: rat, 1 mg/kg; remark: listed apart in the source
in vivo [3] = details: rat, po, 1 mg/kg
in vivo [4] = details: rat, 1 mg/kg; remark: listed apart in the source

Structure (SMILES)	Vd (in vivo [1]) [L/kg]	clearance (in vivo [2]) [mL/min/kg]	bioavailability (in vivo [3]) [%]	half-life (in vivo [4]) [h]
Cc1nc2ccccc2n1[C@H]1C[C@H]2CC[C@@H](C1)N2CCC1(c2ccccc2)CCN(C(C(=O)O)c2ccccc2)CC1 (some centres not stated)	3.5	117	0	–
CNC(=O)C(c1ccc(F)cc1)N1CCC(CCN2[C@@H]3CC[C@H]2C[C@@H](n2c(C)nc4ccccc42)C3)(c2cccc(F)c2)CC1 (some centres not stated)	16.5	43	37	6.1
